Assay results from patent publication US9682960B2 (priority 2013, dated 2017).
Like-named read-outs stand apart in the source and are kept apart here.

Key:
Human Androgen Receptor = Human Androgen Receptor (Homo sapiens (Human), UniProt P10275); assay: Androgen receptor assay: [3H]R1881 displacement, cytosol of HEK-293 cells transfected with hAR (hydroxylapatite assay); type: binding; settings: relative binding affinity, R1881 = 100
[1] = tested on: Shionogi mouse mammary carcinoma cells; assay: In vitro androgenic/antiandrogenic activity: proliferation of Shionogi cells with or without DHT; type: cell-based; settings: Mus musculus
[2] = tested on: castrated (CX) immature male rats; assay: Systemic androgenic (agonistic) activity in orchidectomized (CX) immature male rats; type: in vivo, rat; settings: 0.1 mg/rat/po, 7 days; for CX Agonistic activity % Stimulation Bulbo: bulbocavernosus muscles weight; for CX Agonistic activity % Stimulation SV: seminal vesicles weight; for CX Agonistic activity % Stimulation Prostate: ventral prostate weight
Experimental: Immature male rats (Crl:CD(SD)Br) 22 to 24-day old weighting 60-80 g at start of treatment were obtained from Charles-River, Inc. (St-Constant, Quebec, Canada) and housed up to 5 per cage in plastic bins in a temperature (23±1° C.)- and light (12 h light/day, lights on at 7 h15)-controlled environment. The rats were fed rodent chow and tap water ad libitum. […] The day following their arrival, the designed animals were orchidectomized (CX) under Isoflurane anesthesia (Study Day 1) via the scrotal route and were then randomly assigned to groups of 3 to 5 animals. At the time of orchidectomy, one silastic implant of dihydrotestosterone (DHT; 1 cm length of pure DHT in silastic tubing having inner and outer diameter of 0.078 and 0.125 inches, respectively), was inserted subcutaneously in the dorsal area of animals assigned to the evaluation of antiandrogenic activity. In the case of intact animal experiments, the orchidectomy and the silastic implant installation are omitted.
Tested compounds were administered orally once daily for 7 days from Study Day 2 to Study Day 8 at doses generally ranging from 0.1 and 0.5 mg/animal. Compounds were either solubilized in dimethylsulfoxide (DMSO, 10% final concentration) and were administered as a solution/suspension in 0.9% NaCl-1% gelatin or were administered as suspensions in 0.4% aqueous methylcellulose. Animals of the control groups received the corresponding vehicle alone during the 7-day period. Some animals were treated with the antiandrogen Flutamide or Casodex as reference. The animals under isoflurane anesthesia were killed by cervical dislocation on day 9 of the study, approximately 24 h after the last dosing. The ventral prostate, seminal vesicles and bulbocavernosus muscles were rapidly dissected and weighed.
For calculations with intact animals, control DHT is replaced by control intact and the % stimulation is subtracted by 100%. W is the weight of the prostate, seminal vesicles or bulbocavernosus muscles. Discussion

[3] = read-out: Shionogi Antiandrogenic Activity IC50, DHT (0.3 nM)-stimulated cell number
[4] = DHT (0.3 nM)-stimulated cell number, read-out: Shionogi Antiandrogenic Activity IC50

Sequence of Human Androgen Receptor (P10275 whole entry): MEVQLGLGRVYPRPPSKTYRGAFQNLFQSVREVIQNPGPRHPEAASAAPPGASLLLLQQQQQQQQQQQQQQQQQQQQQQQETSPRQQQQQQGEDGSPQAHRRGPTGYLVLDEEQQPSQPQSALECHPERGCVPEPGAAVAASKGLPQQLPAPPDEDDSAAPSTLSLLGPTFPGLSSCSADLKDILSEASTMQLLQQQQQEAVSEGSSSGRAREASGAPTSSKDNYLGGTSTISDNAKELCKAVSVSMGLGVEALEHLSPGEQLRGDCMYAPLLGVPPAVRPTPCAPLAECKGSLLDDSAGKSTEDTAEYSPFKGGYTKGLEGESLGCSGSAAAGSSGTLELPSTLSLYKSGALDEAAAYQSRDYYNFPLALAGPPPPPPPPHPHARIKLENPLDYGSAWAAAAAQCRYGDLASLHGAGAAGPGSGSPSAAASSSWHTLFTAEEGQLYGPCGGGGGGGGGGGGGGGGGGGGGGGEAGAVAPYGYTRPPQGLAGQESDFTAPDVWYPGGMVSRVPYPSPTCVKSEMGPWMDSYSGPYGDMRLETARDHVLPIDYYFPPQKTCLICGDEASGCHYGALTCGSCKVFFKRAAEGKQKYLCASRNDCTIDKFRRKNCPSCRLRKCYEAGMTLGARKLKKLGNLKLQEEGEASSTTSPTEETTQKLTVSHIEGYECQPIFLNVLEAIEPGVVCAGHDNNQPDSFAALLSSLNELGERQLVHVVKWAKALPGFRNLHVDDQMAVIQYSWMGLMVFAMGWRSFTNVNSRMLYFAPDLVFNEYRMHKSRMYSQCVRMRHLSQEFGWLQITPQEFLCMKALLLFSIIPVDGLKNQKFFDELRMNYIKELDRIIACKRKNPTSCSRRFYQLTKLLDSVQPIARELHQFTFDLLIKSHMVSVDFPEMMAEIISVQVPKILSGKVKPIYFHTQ

SMILES | Human Androgen Receptor Binding RBA (%) R1881 = 100 (Human Androgen Receptor; […]) | IC50 [1, 3] | CX Agonistic activity % Stimulation Bulbo [2] | CX Agonistic activity % Stimulation SV [2] | CX Agonistic activity % Stimulation Prostate [2] | Human Androgen Receptor Binding RBA (%) R1881 = 100 (Human Androgen Receptor; transfected cells) | IC50 [1, 4]
Cc1c(N2C(=O)C(C)(C)N(CCCOc3ccc(-c4cccnc4)cc3)C2=S)ccc(C#N)c1Cl [EM-8656] | 477 ± 16 (n = 2) % | > 100 nM | 73% | 24% | 38% | – | –
Cc1c(N2C(=O)C(C)(C)N(CCCOc3ccc(-c4ccncc4)cc3)C2=S)ccc(C#N)c1Cl [EM-8664] | 664% | > 100 nM | 177% | 66% | 62% | – | –
Cc1c(N2C(=O)C(C)(C)N(CCCOc3ccc(-c4cncnc4)cc3)C2=S)ccc(C#N)c1Cl [EM-8685] | 144% | > 100 nM | 136% | 20% | 41% | – | –
Cc1c(N2C(=O)C(C)(C)N(CCCOc3ccc(-c4cccnc4)cc3F)C2=S)ccc(C#N)c1Cl [EM-8714] | 355% | 97 nM | 78% | 18% | 45% | – | –
Cc1c(N2C(=O)C(C)(C)N(CCCOc3ccc(-c4ccccn4)cc3F)C2=S)ccc(C#N)c1Cl [EM-8715] | 155% | 57.3 nM | 58% | 11% | 35% | – | –
Cc1c(N2C(=O)C(C)(C)N(CCCOc3ccc(-c4ccncc4)cc3F)C2=S)ccc(C#N)c1Cl [EM-8723] | 408% | 120 nM | 129% | 56% | 60% | – | –
Cc1c(N2C(=O)C(C)(C)N(CCCOc3ccc4ncccc4c3)C2=S)ccc(C#N)c1Cl [EM-8728] | 125.4% | 53.4 nM | 98% | 25% | 48% | – | –
Cc1c(N2C(=O)C(C)(C)N(CCCOc3ccc4cccnc4c3)C2=S)ccc(C#N)c1Cl [EM-8730] | – | – | 178% | 73% | 59% | 140.5% | 105 nM
Cc1c(N2C(=O)C(C)(C)N(CCCOc3ccc(-c4ccncc4)cc3C(F)(F)F)C2=S)ccc(C#N)c1C(F)(F)F [EM-8772] | – | – | 104% | 15% | 29% | 2.6% | 137 nM
Cc1c(N2C(=O)C(C)(C)N(CCCOc3ccc(-c4ccncc4)cc3C(F)(F)F)C2=S)ccc(C#N)c1Cl [EM-8773] | 28.1% | 125 nM | 123% | 30% | 30% | – | –
Cc1c(N2C(=O)N(CCCOc3ccc4cccnc4c3)C(C)(C)C2=O)ccc(C#N)c1Cl [EM-8786] | – | 191 ± 87 nM | 124 ± 32 (n = 2) % | 10 ± 10 (n = 2) % | 35 ± 10 (n = 2) % | 8.9 ± 0.2 (n = 2) % | –
Cc1c(N2C(=O)C(C)(C)N(CCCOc3ccc(-c4ccncc4)cc3F)C2=S)ccc(C#N)c1C(F)(F)F [EM-8793] | – | 48.2 nM | 139% | 42% | 29% | 412% | –
Cc1c(N2C(=O)C(C)(C)N(CCCOc3ccc(-c4ccncc4)c(F)c3)C2=S)ccc(C#N)c1Cl [EM-8796] | 698% | 188 nM | 168% | 127% | 58% | – | –
Cc1c(N2C(=O)C(C)(C)N(CCCOc3ccc(-c4ccncc4)c(F)c3)C2=S)ccc(C#N)c1C(F)(F)F [EM-8797] | – | – | 143% | 58% | 50% | 400% | 108 nM
Cc1c(N2C(=O)C(C)(C)N(CCCOc3ccc(-c4ccncc4)cc3Cl)C2=S)ccc(C#N)c1C(F)(F)F [EM-8798] | – | 130 nM | 114% | 25% | 49% | 219% | –
Cc1c(N2C(=O)C(C)(C)N(CCCOc3ccc(-c4ccncc4)cc3Cl)C2=S)ccc(C#N)c1Cl [EM-8799] | 877% | 116 nM | 126% | 55% | 58% | – | –
Cc1c(N2C(=O)C(C)(C)N(CCCOc3ccc(-c4ccncc4)cn3)C2=S)ccc(C#N)c1Cl [EM-8815] | – | 80 nM | 163% | 75% | 59% | 159% | –
Cc1c(N2C(=O)C(C)(C)N(CCCOc3ccc(-c4ccncc4)c(C(F)(F)F)c3)C2=S)ccc(C#N)c1Cl [EM-8820] | – | 21.8 nM | 154% | 58% | 33% | 263% | –
CC1(C)C(=O)N(c2ccc(C#N)c(C(F)(F)F)c2)C(=O)N1Cc1ccc(-c2cc[n+]([O-])cc2)c(F)c1 [EM-9228] | 0.4% | 53 nM | – | – | – | – | –
COc1cc(-c2ccncc2)ccc1OCCCN1C(=O)N(c2ccc(C#N)c(Cl)c2)C(=O)C1(C)C [EM-9261] | 2.5% | 27 nM | – | – | – | – | –
CC1(C)C(=O)N(c2ccc(C#N)c(Cl)c2)C(=O)N1CCCOc1ccc(-c2ccncc2F)cc1 [EM-9267] | – | 16 nM | – | – | – | 5.5% | –
CC1(C)C(=O)N(c2ccc(C#N)c(C(F)(F)F)c2)C(=O)N1c1ccc(-c2ccncc2)cc1 [EM-9340] | – | – | – | – | – | 0.2% | 126 nM
Cc1c(N2C(=O)N(c3ccc(-c4cccnc4)cc3)C(C)(C)C2=O)ccc(C#N)c1C(F)(F)F [EM-9342] | – | 66 nM | – | – | – | 0.4% | –
Cc1c(N2C(=O)N(Cc3ccc(-c4ccncc4)cc3)C(C)(C)C2=O)ccc(C#N)c1Cl [EM-9343] | 6.1% | 21 nM | – | – | – | – | –
Cc1c(N2C(=O)N(c3ccc(-c4ccncc4)cc3)C(C)(C)C2=O)ccc(C#N)c1C(F)(F)F [EM-9344] | 0.8% | 51 nM | – | – | – | – | –
Cc1c(N2C(=O)N(Cc3ccc(-c4cc[n+]([O-])cc4)cc3)C(C)(C)C2=O)ccc(C#N)c1Cl [EM-9345] | – | ~80 nM | – | – | – | 0.5% | –
